Tested on: human fibroblasts
Assay: Wound healing model (scratch wound) in human fibroblasts
Type: cell-based
Conditions: 14 hours after wounding; initial wound area defined as 100%; added to cell culture medium
Source text: Preliminary cell studies with human fibroblasts have been performed to test potential health benefits of LCMUFA in skin.
The main objective of the study was to show whether addition of a LCMUFA concentrate (Cetoleic acid concentrate) or DHA to cell culture medium would: • 1) Influence the capacity of the cells to regenerate after damage (so called “wound healing model”), • 2) Influence the production of melanin (skin pigment), • 3) Influence the expression of genes involved in inflammation after induced oxidative stress.
Wound healing model: Treatment arms included addition of DHA or the LCMUFA contrate to the cell culture medium, respectively. The control was cells only added culture medium, no fatty acids. The effect on closing of wound 14 hours after initiation of a wound was measured.
The initial wound area was defined as 100%, then the wound opening was measured after 14 hours to a percentage of the original wound. The reduction was approximately 60% for LC-MUFA and 50% for DHA, respectively.

CC/C=C\C/C=C\C/C=C\C/C=C\C/C=C\C/C=C\CCC(=O)O [DHA, Docosahexaenoic acid]
reduction of scratch wound area: ~50%
